The numbers were not newly measured in patent US11603570B2, “Methods for the detection and treatment of leukemias that are responsive to DOT1L inhibition” (MEMORIAL SLOAN KETTERING CANCER CENTER, priority 2013, dated 2023), which cites them from elsewhere.

For series [1] the following is noted: mice or rats, at a dose efficacious against MLL-translocated leukemia cells; cited from earlier work.
For series [2] the following is noted: rats; cited from earlier work.
For series [3], the system named is MLL-translocated leukemia cells. As to conditions: infusion, including continuous infusion; cited from earlier work.
The next series deals with other methyltransferases. As to conditions: in words; FIG. 1B; cited from earlier work.
The conditions of series [4]: dogs; cited from earlier work.
The test system of series [5] is MLL-rearranged leukemia xenograft. As to conditions: cited from earlier work.
For series [6] the following is noted: cited from earlier work.

Read-outs that look alike come from different tables or passages of the source.

For `CC(C)N(C[C@H]1O[C@@H](n2cnc3c(N)ncnc32)[C@H](O)[C@@H]1O)C1CC(CCc2nc3cc(C(C)(C)C)ccc3[nH]2)C1` (stereo partly drawn) [EPZ005676, (2R,3R,4S,5R)-2-(6-amino-9H-purin-9-yl)-5-((((1r,3S)-3-(2-(5-(tert-butyl)-1H-benzo[d]imidazol-2-yl)ethyl)cyclobutyl)(isopropyl)amino)methyl)tetrahydrofuran-3,4-diol], in series [1], the hematopoietic toxicity entry was “did not show hematopoietic toxicity”. The entries for the “effective pharmacokinetic half-life in systemic circulation” value in series [2] and in series [4] were 15 min and 90 min, respectively. Also, the “growth of MLL-translocated leukemia cells in mice” value in series [3] is “suppresses the growth”. The “specificity for DOT1L / H3K79me as compared to other methyl transferases” value with other methyltransferases was “highly selective”. The “tumor response at the highest dose” value in series [5] (continuous intravenous infusion for 21 days, highest dose) is “complete tumor regressions”. Also, the anti-tumor activity result in series [5] (continuous intravenous infusion for 21 days) is recorded as “dose-dependent anti-tumor activity”. The “no regrowth after the cessation of treatment” value in series [5] (highest dose) is “up to 32 days”. The “solubility in aqueous solution” value in series [6] was “soluble”.
